Test results reported in publication PMC10447463, “Data-mining unveils structure–property–activity correlation of viral infectivity enhancing self-assembling peptides” (Nature Communications, 2023).
Read-outs that look alike come from different tables or passages of the source.

Key:
[1] = format: physicochemical; parameters: key to Fibril / Fibril Formation / TEM 2cat / Fibril: 1 = fibrils present; 0 non-fibrillar structures; settings: for Fibril / Fibril / Fibril Formation: TEM; for Fibril / Fibril Formation: 1 mg/mL, uranyl acetate stain, qualitative
[2] = β-sheet content by ATR-FT-IR; format: physicochemical; settings: Fig. S7 panel A; β-sheet content by ATR-FT-IR
Procedure, shortened: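 Measurements on freeze-dried PNF powders used a diamond ATR element, 64 scans each, with β-sheet fraction derived as previously reported. CR reflects loss of fluorescamine-reactive monomer after 3 kDa ultrafiltration, averaged over triplicates.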

[3] = format: physicochemical; settings: for ThT Cat. / ThT-Fluorescence (categorical): ThT-active if fluorescence at least twice the control
Procedure, shortened: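 Preformed peptide fibrils (1 mg/mL) mixed with 50 µM ThT in PBS, 15 min at RT, fluorescence ex 440/em 488 nm versus PBS blank, triplicates. Zeta potential: peptides at 1 mg/mL in PBS pH 7.4, aged 1 d at RT, diluted in 1 mM KCl, Smoluchowski from electrophoretic mobility.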

[4] = FigS12 panel A, fibril category by TEM
[5] = 1 = fibrils present, 0 = non-fibrillar
[6] = 1 = fibrils present, 0 = non-fibrillar structures
[7] = ThT fluorescence category, 1 if Rel. ThT >2
[8] = category: fibrils present or non-fibrillar

Substance	TEM 2cat ([1]; Fig S10 panel D)	TEM 2cat [1, 4]	Fibril ([1]; FigS12 panel B)	Fibril / Fibril Formation [1]	Fibril [1, 5]	Fibril [1, 6]	b -sheet / % [2] [%]	Tht category (> 2 to blank = +) ([3]; Fig S10 panel D)	Tht category (> 2 to blank = +) ([3]; FigS12 panel A)	ThT Cat, ([3]; FigS12 panel B)	ThT Cat, ([3]; ThT category, 1 if Rel. ThT >2)	ThT Cat. ([3]; ThT category, 1 if Rel. ThT >2)	ThT Cat. / ThT-Fluorescence (categorical) [3]	ThT Cat. [3, 7]	TEM 2cat [1, 8]
KVKGVGK	0	0	0	0	0	0	8.763	0 (ThT-inactive (N-Fold <2))	0 (ThT-inactive (N-Fold <2))	0 (ThT-inactive (N-Fold <2))	0 (ThT-inactive (N-Fold <2))	0 (ThT-inactive (N-Fold <2))	0 (ThT-inactive (N-Fold <2))		
KVKVKVQV	0	0	0	0	0	0	43.06	1 (ThT. Cat is 1, if Rel. ThT >2)	1 (ThT. Cat is 1, if Rel. ThT >2)	1 (ThT. Cat is 1, if Rel. ThT >2)	1 (ThT. Cat is 1, if Rel. ThT >2)	1 (ThT. Cat is 1, if Rel. ThT >2)	1 (ThT. Cat is 1, if Rel. ThT >2)		
KWKWQW	0	0	0	0	0	0	30.47	0 (ThT-inactive (N-Fold <2))	0 (ThT-inactive (N-Fold <2))	0 (ThT-inactive (N-Fold <2))	0 (ThT-inactive (N-Fold <2))		0 (ThT-inactive (N-Fold <2))	0 (ThT-inactive (N-Fold <2))	
KYKGAIIGNIK	0	0	0	0	0	0	44.63	0 (ThT-inactive (N-Fold <2))	0 (ThT-inactive (N-Fold <2))	0 (ThT-inactive (N-Fold <2))	0 (ThT-inactive (N-Fold <2))	0 (ThT-inactive (N-Fold <2))	0 (ThT-inactive (N-Fold <2))		
KYKYQY	0	0	0	0	0	0	0	1 (ThT. Cat is 1, if Rel. ThT >2)	1 (ThT. Cat is 1, if Rel. ThT >2)	1 (ThT. Cat is 1, if Rel. ThT >2)	1 (ThT. Cat is 1, if Rel. ThT >2)		1 (ThT. Cat is 1, if Rel. ThT >2)	1 (ThT. Cat is 1, if Rel. ThT >2)	
MKFM	0	0	0	0	0	0	34.63	0 (ThT-inactive (N-Fold <2))	0 (ThT-inactive (N-Fold <2))	0 (ThT-inactive (N-Fold <2))	0 (ThT-inactive (N-Fold <2))	0 (ThT-inactive (N-Fold <2))	0 (ThT-inactive (N-Fold <2))		
NMWQKAKAQA	1	1	1	1	1	1	37.34	1 (ThT. Cat is 1, if Rel. ThT >2)	1 (ThT. Cat is 1, if Rel. ThT >2)	1 (ThT. Cat is 1, if Rel. ThT >2)	1 (ThT. Cat is 1, if Rel. ThT >2)	1 (ThT. Cat is 1, if Rel. ThT >2)	1 (ThT. Cat is 1, if Rel. ThT >2)		
NMWQKFKFQF	1			1	1	1	33.22	0 (ThT-inactive (N-Fold <2))			0 (ThT-inactive (N-Fold <2))	0 (ThT-inactive (N-Fold <2))	0 (ThT-inactive (N-Fold <2))		1
NMWQKIKIQI	1			1	1	1	39.24	1 (ThT. Cat is 1, if Rel. ThT >2)			1 (ThT. Cat is 1, if Rel. ThT >2)		1 (ThT. Cat is 1, if Rel. ThT >2)	1 (ThT. Cat is 1, if Rel. ThT >2)	1
NMWQKIKQII	0	0	0	0	0	0	38.14	0 (ThT-inactive (N-Fold <2))	0 (ThT-inactive (N-Fold <2))	0 (ThT-inactive (N-Fold <2))	0 (ThT-inactive (N-Fold <2))	0 (ThT-inactive (N-Fold <2))	0 (ThT-inactive (N-Fold <2))		
NMWQKVGTPL	0	0	0	0	0	0	32.26	1 (ThT. Cat is 1, if Rel. ThT >2)	1 (ThT. Cat is 1, if Rel. ThT >2)	1 (ThT. Cat is 1, if Rel. ThT >2)	1 (ThT. Cat is 1, if Rel. ThT >2)	1 (ThT. Cat is 1, if Rel. ThT >2)	1 (ThT. Cat is 1, if Rel. ThT >2)		
PPFHPPPFHP	0	0	0	0	0	0	46.6563	0 (ThT-inactive (N-Fold <2))	0 (ThT-inactive (N-Fold <2))	0 (ThT-inactive (N-Fold <2))	0 (ThT-inactive (N-Fold <2))	0 (ThT-inactive (N-Fold <2))	0 (ThT-inactive (N-Fold <2))		
QCKAKAQA	0	0	0	0	0	0	34.06	0 (ThT-inactive (N-Fold <2))	0 (ThT-inactive (N-Fold <2))	0 (ThT-inactive (N-Fold <2))	0 (ThT-inactive (N-Fold <2))	0 (ThT-inactive (N-Fold <2))	0 (ThT-inactive (N-Fold <2))		
